Test results: patent publication US20190255091A1, “RNAi AGENTS FOR [sequence] B VIRUS INFECTION” (priority 2016, published 2019)

Key:
[1] = tested on: Hepatitis B Virus (HBV); assay: Serum HBV DNA levels in pHBV model mice (qPCR); assay type: in vivo; details: single s.c. injection day 1, Example 7
Source text: (§1) Six to eight-week-old female NOD.CB17-Prkdscid/NcrCrl (NOD-SCID) mice were transiently transfected in vivo with MC-HBV1.3 by hydrodynamic tail vein injection (Yang P L et al. “Hydrodynamic injection of viral DNA: a mouse model of acute hepatitis B virus infection,” PNAS USA 2002 Vol. 99: p. 13825-13830), administered 30 to 45 days prior to administration of an HBV RNAi agent or control. MC-HBV1.3 is a plasmid-derived minicircle that contains the same terminally redundant human hepatitis B virus sequence HBV1.3 as in plasmid pHBV1.3 and in the HBV1.3.32 transgenic mice (GenBank accession #V01460) (Guidotti L G et al., “High-level hepatitis B virus replication in transgenic mice,” J Virol 1995 Vol. 69, p 6158-6169.). 5 or 10 μg MC-HBV1.3 in Ringer's Solution in a total volume of 10% of the animal's body weight was injected into mice via tail vein to create pHBV model of chronic HBV infection. The solution was injected through a 27-gauge needle in 5-7 seconds as previously described (Zhang G et al., “High levels of foreign gene expression in hepatocytes after tail vein injection of naked plasmid DNA.” Human Gene Therapy 1999 Vol. 10, p 1735-1737.). At pre-dose (either day 1 pre-dose, day −1, or day −2), Hepatitis B surface antigen (HBsAg) HBsAg expression levels in serum were measured by ELISA and the mice were grouped according to average HBsAg expression levels.
(§2) HBV expression levels were normalized to pre-administration expression levels and to control mice injected with phosphate buffered saline (“PBS”).
Equal volumes of serum from mice in a group or subgroup were pooled to a final volume of 100 μL. DNA was isolated from serum samples using the QIAamp MinElute Virus Spin Kit (Qiagen, Valencia, Calif.) following the manufacturer's instructions. Sterile 0.9% saline was added to each sample to a final volume of 200 μL. Serum samples were added to tubes containing buffer and protease. Carrier RNA was added to aid in the isolation of small amounts of DNA. […] After incubating 15 min at 56° C., nucleic acids were precipitated from the lysates with ethanol and the entire solution applied to a column. After washing, the samples were eluted into a volume of 50 μL Buffer AVE.
The number of copies of HBV genomes in DNA isolated from the pHBV mouse model serum was determined by qPCR. Plasmid pSEAP-HBV353-777, encoding a short segment of the HBV genome within the S gene (bases 353-777 of GenBank accession #V01460), was used to create a six log standard curve. Samples with recovery of DNA below 2 standard deviations from the average, based on detection of pHCR/UbC-SEAP were omitted. TaqMan chemistry-based primers and probes with fluor/ZEN/IBFQ are utilized.
qPCR assays were performed on a 7500 Fast or StepOne Plus Real-Time PCR system (Life Technologies). For evaluation of HBV DNA in serum, DNA was isolated from singlet or duplicate purification steps from pooled group serum samples. Quantitations of HBV DNA and recovery control plasmid were determined by qPCR reactions performed in triplicate. The probes to quantitate HBV and pHCR/UbC-SEAP were included in each reaction.

[2] = tested on: Hepatitis B Virus (HBV); assay: Serum HBeAg levels in pHBV model mice (ELISA); assay type: in vivo; design: key to Average HBeAg levels normalized to pre-treatment and PBS control: ratio to pre-treatment level, divided by PBS control ratio; details: for Average HBeAg fold knockdown normalized to pre-treatment and PBS control / Average HBeAg levels normalized to pre-treatment and PBS control: single s.c. injection day 1, Example 7; for Average HBeAg levels normalized to pre-treatment and PBS control: pooled serum
Source text: as §1, §2
HBeAg analysis was performed with the HBeAg enzyme linked immunosorbent assay (ELISA) as described by the manufacturer (DiaSorin) using serum diluted 4- to 20-fold in 5% nonfat dry milk. The amount of antigen was determined in the linear range of the assay and quantitated against HBeAg protein standards (Fitzgerald Industries International, catalog #30-AH18, Acton, Mass.).
HBeAg expression for each animal was normalized to the control group of mice injected with PBS in order to account for the non-treatment related decline in expression of MC-HBV1.3. For evaluation of HBeAg in serum, HBeAg is analyzed from pooled group or subgroup serum samples. First, the HBeAg level for each pooled group or subgroup was divided by the pre-treatment level of expression in the same group or subgroup in order to determine the ratio of expression “normalized to pre-treatment”. Expression at a specific time point was then normalized to the control group by dividing the “normalized to pre-treatment” ratio for a group or subgroup by the average “normalized to pre-treatment” ratio of all samples from the normal PBS control group.

“AD04776: HBV RNAi agent duplex AM05850-AS/AM06150-SS (antisense UACCAAUUUAUGCCUACAGCC; sense GGCUGUAGGCAUAAAUUGGUA; chemistry not fully specified)” was tested, and the “Average Serum HBV DNA levels normalized to pre-treatment and PBS control” value (“Average Serum HBV DNA levels normalized” for short) ([1]; Day 8, 1.0 mg/kg) was 0.601 ± 0.388, the “Average Serum HBV DNA levels normalized” value ([1]; Day 8, 2.0 mg/kg) was 0.363 ± 0.128 and the “Average Serum HBV DNA levels normalized” value ([1]; Day 8, 4.0 mg/kg) was 0.224 ± 0.150. For the same substance, the “Average Serum HBV DNA levels normalized” value ([1]; Day 15, 1.0 mg/kg) was 0.319 ± 0.125, the “Average Serum HBV DNA levels normalized” value ([1]; Day 15, 2.0 mg/kg) was 0.374 ± 0.197 and the “Average Serum HBV DNA levels normalized” value ([1]; Day 15, 4.0 mg/kg) was 0.263 ± 0.185. For the same substance, the “Average Serum HBV DNA levels normalized” value ([1]; Day 22, 1.0 mg/kg) was 0.279 ± 0.138, the “Average Serum HBV DNA levels normalized” value ([1]; Day 22, 2.0 mg/kg) was 0.275 ± 0.146 and the “Average Serum HBV DNA levels normalized” value ([1]; Day 22, 4.0 mg/kg) was 0.335 ± 0.204. The “Average Serum HBV DNA levels normalized” value ([1]; Day 29, 1.0 mg/kg) was 0.506 ± 0.525, the “Average Serum HBV DNA levels normalized” value ([1]; Day 29, 2.0 mg/kg) was 0.385 ± 0.141 and the “Average Serum HBV DNA levels normalized” value ([1]; Day 29, 4.0 mg/kg) was 0.449 ± 0.108. The “Average Serum HBV DNA levels normalized” value ([1]; Day 36, 1.0 mg/kg) was 0.444 ± 0.407, the “Average Serum HBV DNA levels normalized” value ([1]; Day 36, 2.0 mg/kg) was 0.721 ± 0.043 and the “Average Serum HBV DNA levels normalized” value ([1]; Day 36, 4.0 mg/kg) was 0.603 ± 0.068. For the same substance, the “Average HBeAg fold knockdown normalized to pre-treatment and PBS control” value (from here on “Average HBeAg fold knockdown normalized”) ([2]; Day 8, 1.0 mg/kg) was 2.6 Fold KD, the “Average HBeAg levels normalized to pre-treatment and PBS control” value (from here on “Average HBeAg levels normalized”) ([2]; Day 8, 1.0 mg/kg) was 0.381 and the “Average HBeAg fold knockdown normalized” value ([2]; Day 8, 2.0 mg/kg) was 3.6 Fold KD. The “Average HBeAg levels normalized” value ([2]; Day 8, 2.0 mg/kg) was 0.275, the “Average HBeAg fold knockdown normalized” value ([2]; Day 8, 4.0 mg/kg) was 5.2 Fold KD and the “Average HBeAg levels normalized” value ([2]; Day 8, 4.0 mg/kg) was 0.193. For the same substance, the “Average HBeAg fold knockdown normalized” value ([2]; Day 15, 1.0 mg/kg) was 2.7 Fold KD, the “Average HBeAg levels normalized” value ([2]; Day 15, 1.0 mg/kg) was 0.368 and the “Average HBeAg fold knockdown normalized” value ([2]; Day 15, 2.0 mg/kg) was 3.9 Fold KD. For the same substance, the “Average HBeAg levels normalized” value ([2]; Day 15, 2.0 mg/kg) was 0.255, the “Average HBeAg fold knockdown normalized” value ([2]; Day 15, 4.0 mg/kg) was 4.7 Fold KD and the “Average HBeAg levels normalized” value ([2]; Day 15, 4.0 mg/kg) was 0.213. The “Average HBeAg fold knockdown normalized” value ([2]; Day 22, 1.0 mg/kg) was 2.8 Fold KD, the “Average HBeAg levels normalized” value ([2]; Day 22, 1.0 mg/kg) was 0.355 and the “Average HBeAg fold knockdown normalized” value ([2]; Day 22, 2.0 mg/kg) was 2.7 Fold KD. For the same substance, the “Average HBeAg levels normalized” value ([2]; Day 22, 2.0 mg/kg) was 0.370, the “Average HBeAg fold knockdown normalized” value ([2]; Day 22, 4.0 mg/kg) was 3.8 Fold KD and the “Average HBeAg levels normalized” value ([2]; Day 22, 4.0 mg/kg) was 0.260. The “Average HBeAg fold knockdown normalized” value ([2]; Day 29, 1.0 mg/kg) was 1.8 Fold KD, the “Average HBeAg levels normalized” value ([2]; Day 29, 1.0 mg/kg) was 0.564 and the “Average HBeAg fold knockdown normalized” value ([2]; Day 29, 2.0 mg/kg) was 2.0 Fold KD. The “Average HBeAg levels normalized” value ([2]; Day 29, 2.0 mg/kg) was 0.495, the “Average HBeAg fold knockdown normalized” value ([2]; Day 29, 4.0 mg/kg) was 3.3 Fold KD and the “Average HBeAg levels normalized” value ([2]; Day 29, 4.0 mg/kg) was 0.307. For the same substance, the “Average HBeAg fold knockdown normalized” value ([2]; Day 36, 1.0 mg/kg) was 2.1 Fold KD, the “Average HBeAg levels normalized” value ([2]; Day 36, 1.0 mg/kg) was 0.483 and the “Average HBeAg fold knockdown normalized” value ([2]; Day 36, 2.0 mg/kg) was 2.2 Fold KD. For the same substance, the “Average HBeAg levels normalized” value ([2]; Day 36, 2.0 mg/kg) was 0.449, the “Average HBeAg fold knockdown normalized” value ([2]; Day 36, 4.0 mg/kg) was 2.2 Fold KD and the “Average HBeAg levels normalized” value ([2]; Day 36, 4.0 mg/kg) was 0.464.

In the case of “AD04982: HBV RNAi agent duplex AM06464-AS/AM06150-SS (antisense UACCAAUUUAUGCCUACAGCC; sense GGCUGUAGGCAUAAAUUGGUA; chemistry not fully specified)”, the “Average Serum HBV DNA levels normalized” value ([1]; Day 8, 1.0 mg/kg) is reported as 0.358 ± 0.207, the “Average Serum HBV DNA levels normalized” value ([1]; Day 8, 2.0 mg/kg) is reported as 0.516 ± 0.163 and the “Average Serum HBV DNA levels normalized” value ([1]; Day 15, 1.0 mg/kg) is reported as 0.428 ± 0.073. The “Average Serum HBV DNA levels normalized” value ([1]; Day 15, 2.0 mg/kg) was 0.523 ± 0.264, the “Average Serum HBV DNA levels normalized” value ([1]; Day 22, 1.0 mg/kg) was 0.433 ± 0.220 and the “Average Serum HBV DNA levels normalized” value ([1]; Day 22, 2.0 mg/kg) was 0.244 ± 0.123. The “Average Serum HBV DNA levels normalized” value ([1]; Day 29, 1.0 mg/kg) was 0.474 ± 0.090, the “Average Serum HBV DNA levels normalized” value ([1]; Day 29, 2.0 mg/kg) was 0.241 ± 0.085 and the “Average Serum HBV DNA levels normalized” value ([1]; Day 36, 1.0 mg/kg) was 0.509 ± 0.163. The “Average Serum HBV DNA levels normalized” value ([1]; Day 36, 2.0 mg/kg) was 0.543 ± 0.079, the “Average HBeAg fold knockdown normalized” value ([2]; Day 8, 1.0 mg/kg) was 2.1 Fold KD and the “Average HBeAg levels normalized” value ([2]; Day 8, 1.0 mg/kg) was 0.471. The “Average HBeAg fold knockdown normalized” value ([2]; Day 8, 2.0 mg/kg) was 3.0 Fold KD, the “Average HBeAg levels normalized” value ([2]; Day 8, 2.0 mg/kg) was 0.335 and the “Average HBeAg fold knockdown normalized” value ([2]; Day 15, 1.0 mg/kg) was 2.4 Fold KD. The “Average HBeAg levels normalized” value ([2]; Day 15, 1.0 mg/kg) was 0.424, the “Average HBeAg fold knockdown normalized” value ([2]; Day 15, 2.0 mg/kg) was 3.2 Fold KD and the “Average HBeAg levels normalized” value ([2]; Day 15, 2.0 mg/kg) was 0.310. For the same substance, the “Average HBeAg fold knockdown normalized” value ([2]; Day 22, 1.0 mg/kg) was 1.8 Fold KD, the “Average HBeAg levels normalized” value ([2]; Day 22, 1.0 mg/kg) was 0.562 and the “Average HBeAg fold knockdown normalized” value ([2]; Day 22, 2.0 mg/kg) was 2.4 Fold KD. For the same substance, the “Average HBeAg levels normalized” value ([2]; Day 22, 2.0 mg/kg) was 0.411, the “Average HBeAg fold knockdown normalized” value ([2]; Day 29, 1.0 mg/kg) was 2.0 Fold KD and the “Average HBeAg levels normalized” value ([2]; Day 29, 1.0 mg/kg) was 0.513. The “Average HBeAg fold knockdown normalized” value ([2]; Day 29, 2.0 mg/kg) was 2.3 Fold KD, the “Average HBeAg levels normalized” value ([2]; Day 29, 2.0 mg/kg) was 0.442 and the “Average HBeAg fold knockdown normalized” value ([2]; Day 36, 1.0 mg/kg) was 1.4 Fold KD. For the same substance, the “Average HBeAg levels normalized” value ([2]; Day 36, 1.0 mg/kg) was 0.705, the “Average HBeAg fold knockdown normalized” value ([2]; Day 36, 2.0 mg/kg) was 2.0 Fold KD and the “Average HBeAg levels normalized” value ([2]; Day 36, 2.0 mg/kg) was 0.500. For the same substance, the “fold decrease of HBeAg” value ([2]; Example 7 Group D, 2.0 mg/kg AD04982, day 15) was 3.2 fold.
